Values joined by “and” are separate entries in the source; they are usually repeats but may differ in a detail not shown here. Equal values may be shown once. Toxic doses and inconclusive results are not listed. Cut-off read from the data, not from the text of the source: active = T/C of 150% or more; inactive = T/C below 125%.
Tested on: L1210 leukemia ip in BDF1 mice, survival T/C
Test: NCI In Vivo Anticancer Drug Screen. Data for tumor model L1210 Leukemia (intraperitoneal) in B6D2F1 (BDF1) mice
Settings: endpoint: mean survival time, higher = longer survival
Method in brief: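 Read-out is survival time, reported as the treated-group measurement over the vehicle-control measurement.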

[1] = dose: 100.0 mg/kg/injection, schedule: Q01DX009 (ip), vehicle: saline with Tween-80
[2] = dose: 200.0 mg/kg/injection, schedule: Q01DX009 (ip), vehicle: saline with Tween-80
[3] = dose: 12.5 mg/kg/injection, schedule: Q01DX009 (ip), vehicle: Klucel (hydroxypropylcellulose) (HPC)
[4] = dose: 25.0 mg/kg/injection, schedule: Q01DX009 (ip), vehicle: Klucel (hydroxypropylcellulose) (HPC)
[5] = dose: 50.0 mg/kg/injection, schedule: Q01DX009 (ip), vehicle: Klucel (hydroxypropylcellulose) (HPC)
[6] = dose: 100.0 mg/kg/injection, schedule: Q01DX009 (ip), vehicle: Klucel (hydroxypropylcellulose) (HPC)
[7] = dose: 200.0 mg/kg/injection, schedule: Q01DX009 (ip), vehicle: Klucel (hydroxypropylcellulose) (HPC)
[8] = dose: 100.0 mg/kg/injection, schedule: Q04DX003 (ip), vehicle: saline
[9] = dose: 200.0 mg/kg/injection, schedule: Q04DX003 (ip), vehicle: saline
[10] = dose: 3.12 mg/kg/injection, schedule: Q04DX003 (ip), vehicle: saline
[11] = dose: 6.25 mg/kg/injection, schedule: Q04DX003 (ip), vehicle: saline
[12] = dose: 12.5 mg/kg/injection, schedule: Q01DX001 (ip), vehicle: saline

Measured: T/C

COC(=O)C1=CC2C3C=C(C(=O)OC)C(C3)C2C1 (configuration not stated)
inactive: dose: 75.0 mg/kg/injection, schedule: Q01DX001 (ip), vehicle: Klucel (hydroxypropylcellulose) (HPC) 100 % of control | dose: 150.0 mg/kg/injection, schedule: Q01DX001 (ip), vehicle: Klucel (hydroxypropylcellulose) (HPC) 103 % of control | dose: 300.0 mg/kg/injection, schedule: Q01DX001 (ip), vehicle: Klucel (hydroxypropylcellulose) (HPC) 98 % of control

OC1C/C=C/CCCCC1 (configuration not stated)
inactive: dose: 100.0 mg/kg/injection, schedule: Q04DX002 (ip), vehicle: Klucel (hydroxypropylcellulose) (HPC) 106 % of control | dose: 200.0 mg/kg/injection, schedule: Q04DX002 (ip), vehicle: Klucel (hydroxypropylcellulose) (HPC) 100 % of control | dose: 400.0 mg/kg/injection, schedule: Q04DX002 (ip), vehicle: Klucel (hydroxypropylcellulose) (HPC) 103 % of control

CCN(CC)CCCC(C)Nc1cc(N)nc2nc(-c3ccccc3)cnc12 (configuration not stated) (tested in a mixture with another compound)
inactive: dose: 75.0 mg/kg/injection, schedule: Q01DX001 (ip), vehicle: saline 86 % of control and 91 % of control | dose: 150.0 mg/kg/injection, schedule: Q01DX001 (ip), vehicle: saline 97 % of control

CCC/C=C/C(O)C1CCCCC1 (configuration not stated)
inactive: dose: 50.0 mg/kg/injection, schedule: Q01DX009 (ip), vehicle: saline with Tween-80 92 % of control | [1] 95 % of control | [2] 95 % of control

COc1ccc(C(O)(c2ccccc2)C(OC(=O)CCl)c2ccccc2)cc1 (configuration not stated)
inactive: [2] 90 % of control

CCCc1nc2c(OC)ccc(OC)c2nc1C
inactive: [3] 98 % of control | [4] 97 % of control | [5] 92 % of control | [6] 94 % of control | dose: 100.0 mg/kg/injection, schedule: Q04DX003 (ip), vehicle: acetone 97 % of control | [7] 86 % of control | dose: 200.0 mg/kg/injection, schedule: Q04DX003 (ip), vehicle: acetone 97 % of control | dose: 400.0 mg/kg/injection, schedule: Q04DX003 (ip), vehicle: acetone 98 % of control

Cc1ccc(Nc2nc(N)nc(N)c2N=O)cc1
inactive: dose: 25.0 mg/kg/injection, schedule: Q01DX Z (ip), vehicle: methylcellulose (MC) 101 % of control | dose: 50.0 mg/kg/injection, schedule: Q01DX Z (ip), vehicle: methylcellulose (MC) 90 % of control

CCC(=O)OC1(c2ccccc2)CCN(CC2CC2)CC1C (configuration not stated)
inactive: dose: 20.0 mg/kg/injection, schedule: Q04DX003 (ip), vehicle: saline 105 % of control | dose: 40.0 mg/kg/injection, schedule: Q04DX003 (ip), vehicle: saline 111 % of control | dose: 80.0 mg/kg/injection, schedule: Q04DX003 (ip), vehicle: saline 91 % of control

CCN(CC)CCOc1ccc(C(=O)/C(=C/c2ccc(OC)cc2)c2ccccc2)cc1
inactive: dose: 100.0 mg/kg/injection, schedule: Q04DX003 (sc), vehicle: olive oil, sesame oil, peanut oil 100 % of control | dose: 200.0 mg/kg/injection, schedule: Q04DX003 (sc), vehicle: olive oil, sesame oil, peanut oil 96 % of control | dose: 400.0 mg/kg/injection, schedule: Q04DX003 (sc), vehicle: olive oil, sesame oil, peanut oil 108 % of control

O=C(O)CN1C(=O)c2cccc([N+](=O)[O-])c2C1=O
inactive: [6] 100 % of control | [7] 100 % of control | dose: 400.0 mg/kg/injection, schedule: Q01DX009 (ip), vehicle: Klucel (hydroxypropylcellulose) (HPC) 101 % of control

CC(C)N1CCOC1c1ccccc1 (configuration not stated)
inactive: dose: 50.0 mg/kg/injection, schedule: Q01DX009 (ip), vehicle: saline sonified 105 % of control | dose: 100.0 mg/kg/injection, schedule: Q01DX009 (ip), vehicle: saline sonified 105 % of control | [8] 100 % of control | dose: 200.0 mg/kg/injection, schedule: Q01DX009 (ip), vehicle: saline sonified 100 % of control | [9] 96 % of control

N=C(N)SCc1cccc([N+](=O)[O-])c1
inactive: dose: 25.0 mg/kg/injection, schedule: Q04DX002 (ip), vehicle: saline with Tween-80 102 % of control | dose: 50.0 mg/kg/injection, schedule: Q04DX002 (ip), vehicle: saline with Tween-80 102 % of control

O=C1c2ccccc2-c2c3c(cc4ccnc1c24)OCO3
inactive: dose: 100.0 mg/kg/injection, schedule: Q01DX001 (ip), vehicle: Klucel (hydroxypropylcellulose) (HPC) 93 % of control | dose: 200.0 mg/kg/injection, schedule: Q01DX001 (ip), vehicle: Klucel (hydroxypropylcellulose) (HPC) 96 % of control | dose: 400.0 mg/kg/injection, schedule: Q01DX001 (ip), vehicle: Klucel (hydroxypropylcellulose) (HPC) 100 % of control

O=C1C(F)=C(N2CC2)C(=O)C(N2CCOCC2)=C1N1CC1
inactive: dose: 0.39 mg/kg/injection, schedule: Q04DX003 (ip), vehicle: saline 94 % of control and 108 % of control | dose: 0.75 mg/kg/injection, schedule: Q01DX009 (ip), vehicle: saline 114 % of control and 122 % of control | dose: 0.78 mg/kg/injection, schedule: Q04DX003 (ip), vehicle: saline 100 % of control | dose: 1.5 mg/kg/injection, schedule: Q01DX009 (ip), vehicle: saline 111 % of control | dose: 1.56 mg/kg/injection, schedule: Q04DX003 (ip), vehicle: saline 102 % of control and 112 % of control | dose: 3.0 mg/kg/injection, schedule: Q01DX009 (ip), vehicle: saline 110 % of control and 112 % of control | dose: 3.12 mg/kg/injection, schedule: Q01DX001 (ip), vehicle: saline 91 % of control | [10] 105 % of control and 107 % of control | dose: 6.0 mg/kg/injection, schedule: Q01DX009 (ip), vehicle: saline 111 % of control | dose: 6.25 mg/kg/injection, schedule: Q01DX001 (ip), vehicle: saline 104 % of control | [11] 105 % of control and 121 % of control | [12] 92 % of control

O=C(CCCc1ccc(N(CCCl)CCCl)cc1)Nc1ccccc1
inactive: dose: 4.0 mg/kg/injection, schedule: Q12HX018 (ip), vehicle: Klucel (hydroxypropylcellulose) (HPC) 102 % of control | dose: 4.0 mg/kg/injection, schedule: Q12HX018 (ip), vehicle: other 103 % of control | dose: 6.0 mg/kg/injection, schedule: Q12HX018 (ip), vehicle: other 101 % of control | dose: 8.0 mg/kg/injection, schedule: Q12HX018 (ip), vehicle: Klucel (hydroxypropylcellulose) (HPC) 109 % of control | dose: 8.0 mg/kg/injection, schedule: Q12HX018 (ip), vehicle: other 103 % of control | dose: 16.0 mg/kg/injection, schedule: Q12HX018 (ip), vehicle: Klucel (hydroxypropylcellulose) (HPC) 104 % of control

Nc1nc(Cl)c(Cl)nc1N
inactive: dose: 100.0 mg/kg/injection, schedule: Q04DX003 (ip), vehicle: Klucel (hydroxypropylcellulose) (HPC) 95 % of control | dose: 200.0 mg/kg/injection, schedule: Q04DX003 (ip), vehicle: Klucel (hydroxypropylcellulose) (HPC) 100 % of control | dose: 400.0 mg/kg/injection, schedule: Q04DX003 (ip), vehicle: Klucel (hydroxypropylcellulose) (HPC) 95 % of control

CCN(c1c(C)cc(C)c(N(CC(=O)O)S(=O)(=O)c2ccccc2)c1C)S(=O)(=O)c1ccccc1
inactive: [1] 101 % of control | [8] 94 % of control | [2] 97 % of control | [9] 100 % of control | dose: 400.0 mg/kg/injection, schedule: Q01DX009 (ip), vehicle: saline with Tween-80 95 % of control | dose: 400.0 mg/kg/injection, schedule: Q04DX003 (ip), vehicle: saline 103 % of control

c1cc[n+](CCSCCSCC[n+]2ccccc2)cc1
inactive: dose: 3.12 mg/kg/injection, schedule: Q01DX009 (ip), vehicle: acetone 97 % of control | [10] 106 % of control | dose: 6.25 mg/kg/injection, schedule: Q01DX009 (ip), vehicle: acetone 95 % of control | [11] 101 % of control | [12] 105 % of control | dose: 12.5 mg/kg/injection, schedule: Q04DX003 (ip), vehicle: saline 97 % of control

COC(=O)c1nc(Cl)nc(S(C)(=O)=O)c1Cl
inactive: [3] 109 % of control | [4] 103 % of control | [5] 103 % of control and 89 % of control | [6] 92 % of control

CC(=O)Nc1ncc(Oc2ccc(Cl)cc2Cl)c(=O)[nH]1
inactive: dose: 50.0 mg/kg/injection, schedule: Q01DX001 (ip), vehicle: carboxymethylcellulose (CMC) 102 % of control | dose: 100.0 mg/kg/injection, schedule: Q01DX001 (ip), vehicle: carboxymethylcellulose (CMC) 119 % of control | dose: 200.0 mg/kg/injection, schedule: Q01DX001 (ip), vehicle: carboxymethylcellulose (CMC) 96 % of control | dose: 400.0 mg/kg/injection, schedule: Q01DX001 (ip), vehicle: carboxymethylcellulose (CMC) 102 % of control

Reference: PubChem BioAssay AID248 (DTP/NCI, 2004)
